Each structure is given as a SMILES string. ≈ marks a conversion by molar mass, not a printed value.

The test system of experiment [1] is Staphylococcus aureus. The experiment can be described thus: Concentration required to reduce Minimum inhibitory concentration (MIC) of Norfloxacin against Staphylococcus aureus 1199B by 4 folds. It is filed as functional, organism-based.
Experiment [2] concerns Staphylococcus aureus. The experiment can be described thus: Percent inhibition of EtBr efflux against Staphylococcus aureus 1199B at 50 concentration. It is filed as functional.
For experiment [3], the system named is Staphylococcus aureus. The experiment can be described thus: Minimum inhibitory concentration (MIC) against Staphylococcus aureus 1199B; Range 50 - 6.3 ug/mL. It is filed as functional.
Experiment [4] concerns Staphylococcus aureus. Description: Minimum inhibitory concentration (MIC) against Staphylococcus aureus K2068; Range 12.5 1.6 ug/mL. It is filed as functional.
The test system of experiment [5] is Staphylococcus aureus. The experiment can be described thus: Concentration required to reduce Minimum inhibitory concentration (MIC) of Norfloxacin against Staphylococcus aureus 1199B by 8 folds. It is filed as functional, organism-based.

Turning to `COC(=O)[C@H]1[C@H]2C[C@@H]3c4[nH]c5cc(OC)ccc5c4CCN3C[C@H]2C[C@@H](OC(=O)c2cc(OC)c(OC)c(OC)c2)[C@@H]1OC`, the Concentration in experiment [1] amounted to 20 µg/mL. In general, Inhibition refers to the relative decrease from the control value, in per cent. High values mean a strong effect, low ones a weak effect. For the compound `CN1CC[C@@H](c2ccc(F)cc2)[C@H](COc2ccc3c(c2)OCO3)C1`, the Inhibition in experiment [2] is reported as ~50%. The term MIC denotes the lowest concentration that inhibits growth of the organism. A low value points to inhibition by little substance. With `CCn1cc(C(=O)O)c(=O)c2cc(F)c(N3CCNCC3)cc21` [NORFLOXACIN], the minimal inhibitory concentration (MIC) in experiment [3] worked out at 50 µg/mL (≈ 157 µM); in experiment [4], 12.5 µg/mL (≈ 39.1 µM).

As to `Fc1ccc([C@H]2CCNC[C@@H]2COc2ccc3c(c2)OCO3)cc1`, the Concentration in experiment [5] came out at 20 µg/mL. With `Fc1ccc([C@@H]2CCNC[C@H]2COc2ccc3c(c2)OCO3)cc1`, the Concentration in experiment [5] amounted to 25 µg/mL.
